Test results: US10233173B2, “Substituted 1,2,3-triazoles as NR2B-selective NMDA modulators” (JANSSEN PHARMACEUTICA NV, priority 2016, dated 2019)

Biological target: human GluN1/GluN2B NMDA receptors (Homo sapiens, UniProt Q05586+Q13224)
Assay: Cell-based calcium flux (FLIPR) assay on cloned human NR1/NR2B ion channels expressed in mammalian cells
Conditions: standard assay; glutamate at ~EC80; FLIPR calcium flux
Procedure, shortened: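 Calcium influx followed by FLIPR fluorescence after 5 min compound exposure and a further 5 min co-agonist challenge: 10 μM glycine with glutamate at ~EC80 (standard) or EC40 (HTS).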

Sequence of human GluN1/GluN2B NMDA receptors (Q13224 27-1484, other chains not shown): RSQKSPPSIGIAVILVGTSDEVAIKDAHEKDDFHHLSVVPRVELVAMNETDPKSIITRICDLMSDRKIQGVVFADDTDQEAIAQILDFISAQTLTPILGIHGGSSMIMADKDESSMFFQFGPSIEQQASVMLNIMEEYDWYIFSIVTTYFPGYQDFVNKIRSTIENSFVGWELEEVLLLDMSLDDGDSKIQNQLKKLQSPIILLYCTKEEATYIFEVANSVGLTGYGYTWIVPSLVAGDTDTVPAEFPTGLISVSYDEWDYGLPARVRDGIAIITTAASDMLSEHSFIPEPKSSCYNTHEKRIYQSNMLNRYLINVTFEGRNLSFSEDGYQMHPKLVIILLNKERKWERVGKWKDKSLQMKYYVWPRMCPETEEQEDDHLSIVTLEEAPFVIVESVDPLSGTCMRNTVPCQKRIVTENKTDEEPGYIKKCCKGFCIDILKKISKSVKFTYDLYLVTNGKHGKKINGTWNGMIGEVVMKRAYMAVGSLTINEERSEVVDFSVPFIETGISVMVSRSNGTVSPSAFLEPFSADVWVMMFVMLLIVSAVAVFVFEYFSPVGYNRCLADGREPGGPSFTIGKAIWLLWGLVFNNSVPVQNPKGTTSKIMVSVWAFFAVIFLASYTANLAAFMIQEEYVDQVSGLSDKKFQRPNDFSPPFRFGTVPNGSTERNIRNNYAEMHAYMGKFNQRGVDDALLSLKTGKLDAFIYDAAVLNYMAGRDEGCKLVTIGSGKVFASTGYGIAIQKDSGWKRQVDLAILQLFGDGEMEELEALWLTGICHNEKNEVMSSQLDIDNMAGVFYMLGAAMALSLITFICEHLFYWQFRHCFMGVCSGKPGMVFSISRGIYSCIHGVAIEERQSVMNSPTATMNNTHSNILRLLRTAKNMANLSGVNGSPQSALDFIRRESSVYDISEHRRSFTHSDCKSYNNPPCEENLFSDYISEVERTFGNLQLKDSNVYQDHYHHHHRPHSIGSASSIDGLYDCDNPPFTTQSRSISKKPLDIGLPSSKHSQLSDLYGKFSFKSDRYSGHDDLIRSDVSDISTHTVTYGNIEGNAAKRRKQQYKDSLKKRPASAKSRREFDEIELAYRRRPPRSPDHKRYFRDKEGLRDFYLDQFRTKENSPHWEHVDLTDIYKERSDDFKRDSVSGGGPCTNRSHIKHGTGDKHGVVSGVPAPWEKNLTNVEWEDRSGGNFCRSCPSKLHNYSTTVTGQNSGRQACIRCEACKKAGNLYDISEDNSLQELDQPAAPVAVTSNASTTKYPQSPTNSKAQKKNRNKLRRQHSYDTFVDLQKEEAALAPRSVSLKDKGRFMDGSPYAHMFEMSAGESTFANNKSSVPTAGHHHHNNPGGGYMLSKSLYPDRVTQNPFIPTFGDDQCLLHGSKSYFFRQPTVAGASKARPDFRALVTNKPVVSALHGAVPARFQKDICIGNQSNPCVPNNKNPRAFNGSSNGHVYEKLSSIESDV

In order of rising IC50:
1. Cc1cnc(OCc2cn(-c3ccc(Cl)c(C(C)(F)F)c3)nn2)nc1 [Example 530, 2-[[1-[4-Chloro-3-(1,1-difluoroethyl)phenyl]triazol-4-yl]methoxy]-5-methyl-pyrimidine]  0.005 µM
2. Cc1cnc(OCc2cn(-c3ccc(Cl)c(C(C)(F)F)c3)nn2)nc1C [Example 545, 2-[[1-[4-Chloro-3-(1,1-difluoroethyl)phenyl]triazol-4-yl]methoxy]-4,5-dimethyl-pyrimidine]  0.006 µM
3. CC(C)(O)c1cnc(OCc2cn(-c3ccc(F)c(C(C)(F)F)c3)nn2)nc1 [Example 566, 2-[2-[[1-[3-(1,1-Difluoroethyl)-4-fluoro-phenyl]triazol-4-yl]methoxy]pyrimidin-5-yl]propan-2-ol]  0.008 µM
4. CC(F)(F)c1cc(-n2cc(COc3ncc(C(F)F)cn3)nn2)ccc1Cl [Example 535, 2-[[1-[4-Chloro-3-(1,1-difluoroethyl)phenyl]triazol-4-yl]methoxy]-5-(difluoromethyl)pyrimidine]  0.009 µM
5. COCc1ccnc(OCc2cn(-c3ccc(F)c(C(C)(F)F)c3)nn2)n1 [Example 570, 2-[[1-[3-(1,1-Difluoroethyl)-4-fluoro-phenyl]triazol-4-yl]methoxy]-4-(methoxymethyl)pyrimidine]  0.011 µM
6. COc1ccnc(OCc2cn(-c3ccc(Cl)c(C(C)(F)F)c3)nn2)n1 [Example 541, 2-[[1-[4-Chloro-3-(1,1-difluoroethyl)phenyl]triazol-4-yl]methoxy]-4-methoxy-pyrimidine]  0.012 µM
7. CC(F)(F)c1cc(-n2cc(COc3ncc(OC(F)F)cn3)nn2)ccc1Cl [Example 542, 2-[[1-[4-Chloro-3-(1,1-difluoroethyl)phenyl]triazol-4-yl]methoxy]-5-(difluoromethoxy)pyrimidine]  0.012 µM
8. CC(F)(F)c1cc(-n2cc(COc3ncc(C(F)F)cn3)nn2)ccc1F [Example 562, 2-[[1-[3-(1,1-Difluoroethyl)-4-fluoro-phenyl]triazol-4-yl]methoxy]-5-(difluoromethyl)pyrimidine]  0.014 µM
9. Cc1nc(OCc2cn(-c3ccc(Cl)c(C(C)(F)F)c3)nn2)ncc1Cl [Example 543, 5-Chloro-2-[[1-[4-chloro-3-(1,1-difluoroethyl)phenyl]triazol-4-yl]methoxy]-4-methyl-pyrimidine]  0.015 µM
10. Cc1nc(OCc2cn(-c3ccc(Cl)c(C(C)(F)F)c3)nn2)ncc1F [Example 544, 2-[[1-[4-Chloro-3-(1,1-difluoroethyl)phenyl]triazol-4-yl]methoxy]-5-fluoro-4-methyl-pyrimidine]  0.015 µM
11. CC(F)(F)c1cc(-n2cc(COc3ncc(C(F)(F)F)cn3)nn2)ccc1Cl [Example 537, 2-[[1-[4-Chloro-3-(1,1-difluoroethyl)phenyl]triazol-4-yl]methoxy]-5-(trifluoromethyl)pyrimidine]  0.016 µM
12. CC(=O)c1cnc(OCc2cn(-c3ccc(Cl)c(C(C)(F)F)c3)nn2)nc1 [Example 550, 1-[2-[[1-[4-Chloro-3-(1,1-difluoroethyl)phenyl]triazol-4-yl]methoxy]pyrimidin-5-yl]ethanone]  0.016 µM
13. Cc1ccnc(OCc2cn(-c3ccc(Cl)c(C(C)(F)F)c3)nn2)n1 [Example 531, 2-[[1-[4-Chloro-3-(1,1-difluoroethyl)phenyl]triazol-4-yl]methoxy]-4-methyl-pyrimidine]  0.017 µM
14. CC(F)(F)c1cc(-n2cc(COc3ncc(CO)cn3)nn2)ccc1Cl [Example 533, [2-[[1-[4-Chloro-3-(1,1-difluoroethyl)phenyl]triazol-4-yl]methoxy]pyrimidin-5-yl]methanol]  0.017 µM
15. CC(F)(F)c1cc(-n2cc(COc3nccc(CO)n3)nn2)ccc1Cl [Example 540, [2-[[1-[4-Chloro-3-(1,1-difluoroethyl)phenyl]triazol-4-yl]methoxy]pyrimidin-4-yl]methanol]  0.019 µM
16. Cc1cc(C)nc(OCc2cn(-c3ccc(Cl)c(C(C)(F)F)c3)nn2)n1 [Example 546, 2-[[1-[4-Chloro-3-(1,1-difluoroethyl)phenyl]triazol-4-yl]methoxy]-4,6-dimethyl-pyrimidine]  0.024 µM
17. CC(F)(F)c1cc(-n2cc(COc3nccc(CO)n3)nn2)ccc1F [Example 568, [2-[[1-[3-(1,1-Difluoroethyl)-4-fluoro-phenyl]triazol-4-yl]methoxy]pyrimidin-4-yl]methanol]  0.025 µM
18. CC(F)(F)c1cc(-n2cc(COc3nccc(N)n3)nn2)ccc1Cl [Example 547, 2-[[1-[4-Chloro-3-(1,1-difluoroethyl)phenyl]triazol-4-yl]methoxy]pyrimidin-4-amine]  0.033 µM
19. CC(F)(F)c1cc(-n2cc(COc3nccc(N4CCCC4)n3)nn2)ccc1Cl [Example 553, 2-[[1-[4-Chloro-3-(1,1-difluoroethyl)phenyl]triazol-4-yl]methoxy]-4-pyrrolidin-1-yl-pyrimidine]  0.043 µM
20. CC(F)(F)c1cc(-n2cc(COc3nccc(C(F)F)n3)nn2)ccc1F [Example 563, 2-[[1-[3-(1,1-Difluoroethyl)-4-fluoro-phenyl]triazol-4-yl]methoxy]-4-(difluoromethyl)pyrimidine]  0.048 µM
21. Cc1ccc(OCc2cn(-c3ccc(F)c(C(C)(F)F)c3)nn2)nc1C [Example 560, 6-[[1-[3-(1,1-Difluoroethyl)-4-fluoro-phenyl]triazol-4-yl]methoxy]-2,3-dimethyl-pyridine]  0.052 µM
22. CNc1ccnc(OCc2cn(-c3ccc(Cl)c(C(C)(F)F)c3)nn2)n1 [Example 548, 2-[[1-[4-Chloro-3-(1,1-difluoroethyl)phenyl]triazol-4-yl]methoxy]-N-methyl-pyrimidin-4-amine]  0.055 µM
23. CC(F)(F)c1cc(-n2cc(COc3nccc(C(F)F)n3)nn2)ccc1Cl [Example 536, 2-[[1-[4-Chloro-3-(1,1-difluoroethyl)phenyl]triazol-4-yl]methoxy]-4-(difluoromethyl)pyrimidine]  0.067 µM
24. CC(C)(O)c1cnc(OCc2cn(-c3ccc(Cl)c(C(C)(F)F)c3)nn2)nc1 [Example 532, 2-[2-[[1-[4-Chloro-3-(1,1-difluoroethyl)phenyl]triazol-4-yl]methoxy]pyrimidin-5-yl]propan-2-ol]  0.081 µM
25. CC(F)(F)c1cc(-n2cc(COc3ncc(C4CC4)cn3)nn2)ccc1Cl [Example 552, 2-[[1-[4-Chloro-3-(1,1-difluoroethyl)phenyl]triazol-4-yl]methoxy]-5-cyclopropyl-pyrimidine]  0.086 µM
26. COCc1cnc(OCc2cn(-c3ccc(F)c(C(C)(F)F)c3)nn2)nc1 [Example 569, 2-[[1-[3-(1,1-Difluoroethyl)-4-fluoro-phenyl]triazol-4-yl]methoxy]-5-(methoxymethyl)pyrimidine]  0.089 µM
27. CNc1nc(OCc2cn(-c3ccc(Cl)c(C(C)(F)F)c3)nn2)ncc1F [Example 549, 2-[[1-[4-Chloro-3-(1,1-difluoroethyl)phenyl]triazol-4-yl]methoxy]-5-fluoro-N-methyl-pyrimidin-4-amine]  0.094 µM
28. Cc1cccc(OCc2cn(-c3ccc(F)c(C(C)(F)F)c3)nn2)n1 [Example 556, 2-[[1-[3-(1,1-Difluoroethyl)-4-fluoro-phenyl]triazol-4-yl]methoxy]-6-methyl-pyridine]  0.098 µM
29. Cc1ccc(OCc2cn(-c3ccc(F)c(C(C)(F)F)c3)nn2)nc1 [Example 558, 2-[[1-[3-(1,1-Difluoroethyl)-4-fluoro-phenyl]triazol-4-yl]methoxy]-5-methyl-pyridine]  0.125 µM
30. Cc1ccnc(OCc2cn(-c3ccc(F)c(C(C)(F)F)c3)nn2)c1 [Example 557, 2-[[1-[3-(1,1-Difluoroethyl)-4-fluoro-phenyl]triazol-4-yl]methoxy]-4-methyl-pyridine]  0.246 µM
31. CC(F)(F)c1cc(-n2cc(COc3ncccc3F)nn2)ccc1F [Example 555, 2-[[1-[3-(1,1-Difluoroethyl)-4-fluoro-phenyl]triazol-4-yl]methoxy]-3-fluoro-pyridine]  0.265 µM
32. CC(F)(F)c1cc(-n2cc(COc3nccc(C(F)(F)F)n3)nn2)ccc1F [Example 564, 2-[[1-[3-(1,1-Difluoroethyl)-4-fluoro-phenyl]triazol-4-yl]methoxy]-4-(trifluoromethyl)pyrimidine]  0.272 µM
33. CC(F)(F)c1cc(-n2cc(COc3nccc(C(F)(F)F)n3)nn2)ccc1Cl [Example 538, 2-[[1-[4-Chloro-3-(1,1-difluoroethyl)phenyl]triazol-4-yl]methoxy]-4-(trifluoromethyl)pyrimidine]  0.318 µM
34. COc1ncccc1OCc1cn(-c2ccc(F)c(C(C)(F)F)c2)nn1 [Example 561, 3-[[1-[3-(1,1-Difluoroethyl)-4-fluoro-phenyl]triazol-4-yl]methoxy]-2-methoxy-pyridine]  0.476 µM
35. Cc1cnc(OCc2nnn(-c3cccc(C(F)F)c3)c2C)nc1C [Example 528, 2-[[1-[3-(Difluoromethyl)phenyl]-5-methyl-triazol-4-yl]methoxy]-4,5-dimethyl-pyrimidine]  0.752 µM
36. CC(F)(F)c1cc(-n2cc(COc3ccc(C(F)(F)F)cn3)nn2)ccc1F [Example 559, 2-[[1-[3-(1,1-Difluoroethyl)-4-fluoro-phenyl]triazol-4-yl]methoxy]-5-(trifluoromethyl)pyridine]  0.812 µM
37. Cc1c(COc2ncc(Cl)cn2)nnn1-c1cccc(C(F)F)c1 [Example 529, 5-Chloro-2-[[1-[3-(difluoromethyl)phenyl]-5-methyl-triazol-4-yl]methoxy]pyrimidine]  1.32 µM
38. CC(F)(F)c1cc(-n2cc(COc3ccccn3)nn2)ccc1F [Example 554, 2-[[1-[3-(1,1-Difluoroethyl)-4-fluoro-phenyl]triazol-4-yl]methoxy]pyridine]  1.64 µM
39. COC(C)(C)c1cnc(OCc2cn(-c3ccc(F)c(C(C)(F)F)c3)nn2)nc1 [Example 567, 2-[[1-[3-(1,1-Difluoroethyl)-4-fluoro-phenyl]triazol-4-yl]methoxy]-5-(1-methoxy-1-methyl-ethyl)pyrimidine]  4.63 µM
